We go through 12 compounds from patent publication US20250326744A1, “PIPERAZINE DERIVATIVE OR SALT THEREOF, AND PHARMACEUTICAL COMPOSITION” (priority 2022, published 2025).

Each structure is given as a SMILES string. Structures can show the parent of a compound that is named as a salt.

In one assay the test system is S-3769 strain. Description: Combinational effect with antibacterial agent against Pseudomonas aeruginosa (Test Examples 2 and 4): S-3769 strain with AMK or GM at 1/4 MIC, EC99. The class given is cell-based. The note with it: for EC99, S-3769 strain, AMK / EC99, S-3769 strain, GM: Table 52, Test Example 2, 16 to 20 hours culture, OD595; for EC99, S-3769 strain, AMK / EC99, combinational effect with AMK, S-3769 strain: combined with AMK at 1/4 MIC; for EC99, S-3769 strain, GM / EC99, combinational effect with GM, S-3769 strain: combined with GM at 1/4 MIC; for EC99, combinational effect with AMK, S-3769 strain / EC99, combinational effect with GM, S-3769 strain: Test Example 4. In a few lines:
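EC99, the lowest test-compound concentration inhibiting growth by ≥99% (OD595), was measured with aminoglycoside AMK or GM held at ¼ MIC. Strain S-3769, a MexY-overexpressing clinical isolate, was cultured in CAMHB at 10^4 to 5 CFU/well for 16–20 h; compound range 0–800 μM.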

A further assay has as its system mexB (PA) strain. Description: Combinational effect with antibacterial agent against Pseudomonas aeruginosa (Test Examples 2 and 4): mexB (PA) strain with LVFX, TC or AZT at 1/4 MIC, EC99. It is filed as cell-based. The following applies: for EC99, mexB (PA), AZT / EC99, mexB (PA), LVFX / EC99, mexB (PA), TC: Table 52, Test Example 2, 16 to 20 hours culture, OD595; for EC99, mexB (PA), AZT / EC99, combinational effect with AZT, mexB (PA): combined with AZT at 1/4 MIC; for EC99, mexB (PA), LVFX / EC99, combinational effect with LVFX, mexB (PA): combined with LVFX at 1/4 MIC; for EC99, mexB (PA), TC / EC99, combinational effect with TC, mexB (PA): combined with TC at 1/4 MIC; for EC99, combinational effect with AZT, mexB (PA) / EC99, combinational effect with LVFX, mexB (PA) / EC99, combinational effect with TC, mexB (PA): mexB (PA) strain, Test Example 4. An outline of the steps: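 EC99 denotes the minimum test-compound concentration (range 0–800 μM) that suppresses ≥99% of growth, measured by OD595, when combined with ¼ MIC levofloxacin (LVFX), tetracycline or aztreonam. The efflux-pump mutant mexB (PA), expressing mainly MexAB-OprM, was inoculated at 10^4–5 CFU/well in CAMHB for 16–20 h.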

For the compound `CCOc1cccc(F)c1CN1CCN(C(=O)[C@H](N)C2CCN(CCc3c(F)cccc3-c3ccccc3)CC2)CC1` [Example 52, Hydrobromide of (R)-2-amino-1-(4-(2-ethoxy-6-fluorobenzyl)piperazin-1-yl)-2-(1-(2-(3-fluoro-[1,l′-biphenyl]-2-yl)ethyl)piperidin-4-yl)ethan-1-one], in the assay with S-3769 strain, the “EC99, S-3769 strain, AMK” value was “A (12.5 μM<EC99≤25 μM)” and the “EC99, S-3769 strain, GM” value is on record as “S (EC99≤12.5 μM)”. Further, in the assay on mexB (PA) strain, the “EC99, mexB (PA), AZT” value is “B (25 μM<EC99≤100 μM)”; the “EC99, mexB (PA), LVFX” value is “B (25 μM<EC99≤100 μM)”; the “EC99, mexB (PA), TC” value is recorded as “B (25 μM<EC99≤100 μM)”.
For the compound `N[C@@H](C(=O)N1CCN(Cc2c(O)cccc2C(F)(F)F)CC1)C1CCN(CCc2cc(Cl)ccc2-c2ccccc2)CC1` [Example 588, Hydrochloride of (R)-2-amino-2-(1-(2-(4-chloro-[1,1-biphenyl]-2-yl)ethyl)piperidin-4-yl)-1-(4-(2-hydroxy-6-(trifluoromethyl)benzyl)piperazin-1-yl) ethan-1-one], in the assay on S-3769 strain, the “EC99, combinational effect with AMK, S-3769 strain” value (from here on “EC99, combinational effect with AMK”) was “A (12.5 μM<EC99≤25 μM)” and the “EC99, combinational effect with GM, S-3769 strain” value (from here on “EC99, combinational effect with GM”) is “A (12.5 μM<EC99≤25 μM)”. For the same compound, in the assay on mexB (PA) strain, the “EC99, combinational effect with AZT, mexB (PA)” value (“EC99 … with AZT, mexB (PA)” for short) is recorded as “B (25 μM<EC99≤100 μM)”; the “EC99, combinational effect with LVFX, mexB (PA)” value (“EC99 … with LVFX, mexB (PA)” for short) is “A (12.5 μM<EC99≤25 μM)”; the “EC99, combinational effect with TC, mexB (PA)” value (from here on “EC99 … with TC, mexB (PA)”) is given as “A (12.5 μM<EC99≤25 μM)”.
Take `CCSc1ncccc1CN1CCN(C(=O)[C@H](N)C2CCN(CCc3cc(Cl)ccc3-c3ccccc3)CC2)CC1` [Example 535, Hydrobromide of (R)-2-amino-2-(1-(2-(4-chloro-[1,1-biphenyl]-2-yl)ethyl)piperidin-4-yl)-1-(4-((2-(ethylthio)pyridin-3-yl)methyl)piperazin-1-yl)ethan-1-one]: in the assay with S-3769 strain, the “EC99, combinational effect with AMK” value was “B (25 μM<EC99≤100 μM)” and the “EC99, combinational effect with GM” value is reported as “B (25 μM<EC99≤100 μM)”. For the same compound, in the assay with mexB (PA) strain, the “EC99 … with AZT, mexB (PA)” value was “B (25 μM<EC99≤100 μM)”; the “EC99 … with LVFX, mexB (PA)” value is reported as “A (12.5 μM<EC99≤25 μM)”; the “EC99 … with TC, mexB (PA)” value is reported as “B (25 μM<EC99≤100 μM)”.
On to `CCSc1ccc(O)cc1CN1CCN(C(=O)[C@H](N)C2CCN(CCc3cc(Cl)ccc3-c3cccc(O)c3Cl)CC2)CC1` [Example 622, Hydrochloride of (R)-2-amino-2-(1-(2-(2′,4-dichloro-3′-hydroxy-[1,1-biphenyl]-2-yl)ethyl)piperidin-4-yl)-1-(4-(2-(ethylthio)-5-hydroxybenzyl)piperazin-1-yl)ethan-1-one], for which, in the assay on S-3769 strain, the “EC99, combinational effect with AMK” value was “S (EC99≤12.5 μM)” and the “EC99, combinational effect with GM” value is given as “A (12.5 μM<EC99≤25 μM)”. Besides, in the assay on mexB (PA) strain, the “EC99 … with AZT, mexB (PA)” value is reported as “S (EC99≤12.5 μM)”; the “EC99 … with LVFX, mexB (PA)” value is reported as “S (EC99≤12.5 μM)”; the “EC99 … with TC, mexB (PA)” value was “S (EC99≤12.5 μM)”.
Regarding `CSc1ccccc1CN1CCN(C(=O)[C@H](N)C2CCN(CCc3cc(Cl)ccc3C3=CCNCC3)CC2)CC1` [Example 602, Hydrochloride of (R)-2-amino-2-(1-(5-chloro-2-(1,2,3,6-tetrahydropyridin-4-yl)phenethyl)piperidin-4-yl)-1-(4-(2-(methylthio)benzyl)piperazin-1-yl) ethan-1-one], in the assay on S-3769 strain, the “EC99, combinational effect with AMK” value is on record as “S (EC99≤12.5 μM)” and the “EC99, combinational effect with GM” value is “S (EC99≤12.5 μM)”. Further, in the assay with mexB (PA) strain, the “EC99 … with AZT, mexB (PA)” value is “B (25 μM<EC99≤100 μM)”; the “EC99 … with LVFX, mexB (PA)” value is “S (EC99≤12.5 μM)”; the “EC99 … with TC, mexB (PA)” value is “S (EC99≤12.5 μM)”.
As for `COc1cccc(SC)c1CN1CCN(C(=O)[C@H](N)C2CCN(CCc3cc(Cl)ccc3-c3ccccc3)CC2)CC1` [Example 522, Hydrobromide of (R)-2-amino-2-(1-(2-(4-chloro-[1,1-biphenyl]-2-yl)ethyl)piperidin-4-yl)-1-(4-(2-methoxy-6-(methylthio)benzyl)piperazin-1-yl)ethan-1-one], in the assay with S-3769 strain, the “EC99, combinational effect with AMK” value is given as “A (12.5 μM<EC99≤25 μM)” and the “EC99, combinational effect with GM” value was “B (25 μM<EC99≤100 μM)”. Moreover, in the assay with mexB (PA) strain, the “EC99 … with AZT, mexB (PA)” value is “B (25 μM<EC99≤100 μM)”; the “EC99 … with LVFX, mexB (PA)” value was “A (12.5 μM<EC99≤25 μM)”; the “EC99 … with TC, mexB (PA)” value is given as “B (25 μM<EC99≤100 μM)”.
With `CCOc1cccc(F)c1CN1CCN(C(=O)[C@H](N)C2CCN(CCc3cc(Cl)ccc3-c3c(O)cccc3F)CC2)CC1` [Example 578, Hydrochloride of (2R)-2-amino-2-(1-(2-(4-chloro-2′-fluoro-6′-hydroxy-[1,1-biphenyl]-2-yl)ethyl)piperidin-4-yl)-1-(4-(2-ethoxy-6-fluorobenzyl)piperazin-1-yl) ethan-1-one], in the assay with S-3769 strain, the “EC99, combinational effect with AMK” value is listed as “B (25 μM<EC99≤100 μM)” and the “EC99, combinational effect with GM” value was “B (25 μM<EC99≤100 μM)”. In the assay with mexB (PA) strain, the “EC99 … with AZT, mexB (PA)” value was “B (25 μM<EC99≤100 μM)”; the “EC99 … with LVFX, mexB (PA)” value is listed as “A (12.5 μM<EC99≤25 μM)”; the “EC99 … with TC, mexB (PA)” value is “B (25 μM<EC99≤100 μM)”.
As to `CCOc1cccc(F)c1CN1CCN(C(=O)[C@H](N)C2CCN(CCc3cc(Cl)ccc3-c3ccccc3OC)CC2)CC1` [Example 76, Hydrobromide of (R.)-2-amino-2-(1-(2-(4-chloro-2′-methoxy-[1,1′-biphenyl]-2-yl)ethyl)piperidin-4-yl)-1-(4-(2-ethoxy-6-fluorobenzyl)piperazin-1-yl)ethan-1-one], in the assay with S-3769 strain, the “EC99, S-3769 strain, AMK” value is listed as “A (12.5 μM<EC99≤25 μM)” and the “EC99, S-3769 strain, GM” value is listed as “A (12.5 μM<EC99≤25 μM)”. In addition, in the assay on mexB (PA) strain, the “EC99, mexB (PA), AZT” value is recorded as “A (12.5 μM<EC99≤25 μM)”; the “EC99, mexB (PA), LVFX” value is recorded as “B (25 μM<EC99≤100 μM)”; the “EC99, mexB (PA), TC” value is reported as “B (25 μM<EC99≤100 μM)”.
For the compound `Nc1nc2c(CN3CCN(C(=O)[C@H](N)C4CCN(CCc5cc(Cl)ccc5-c5ccccc5)CC4)CC3)cccc2s1` [Example 519, Hydrobromide of (R)-2-amino-1-(4-((2-aminobenzo[d]thiazol-4-yl)methyl)piperazin-1-yl)-2-(1-(2-(4-chloro-[1,1-biphenyl]-2-yl)ethyl)piperidin-4-yl)ethan-1-one], in the assay with S-3769 strain, the “EC99, combinational effect with AMK” value is recorded as “B (25 μM<EC99≤100 μM)” and the “EC99, combinational effect with GM” value is “B (25 μM<EC99≤100 μM)”. Moreover, in the assay on mexB (PA) strain, the “EC99 … with AZT, mexB (PA)” value is listed as “C (100 μM<EC99)”; the “EC99 … with LVFX, mexB (PA)” value was “C (100 μM<EC99)”; the “EC99 … with TC, mexB (PA)” value is listed as “B (25 μM<EC99≤100 μM)”.
Take `CSc1ccccc1CN1CCN(C(=O)[C@H](N)C2CCN(CCc3cc(Cl)ccc3-c3cc(N)cc(F)c3)CC2)CC1` [Example 564, Hydrobromide of (R)-2-amino-2-(1-(2-(3′-amino-4-chloro-5′-fluoro-[1,1-biphenyl]-2-yl)ethyl)piperidin-4-yl)-1-(4-(2-(methylthio)benzyl)piperazin-1-yl)ethan-1-one]: in the assay with S-3769 strain, the “EC99, combinational effect with AMK” value is “B (25 μM<EC99≤100 μM)” and the “EC99, combinational effect with GM” value is listed as “B (25 μM<EC99≤100 μM)”. In the assay on mexB (PA) strain, the “EC99 … with AZT, mexB (PA)” value was “S (EC99≤12.5 μM)”; the “EC99 … with LVFX, mexB (PA)” value is reported as “S (EC99≤12.5 μM)”; the “EC99 … with TC, mexB (PA)” value is on record as “S (EC99≤12.5 μM)”.
Consider `CCOc1cccc(F)c1CN1CCN(C(=O)[C@H](N)C2CCN(CCc3cc(Cl)ccc3-c3ccc(F)cc3Cl)CC2)CC1` [Example 90, Hydrobromide of (R)-2-amino-2-(1-(2-(2′,4-dichloro-4′-fluoro-[1,1′-biphenyl]-2-yl)ethyl)piperidin-4-yl)-1-(4-(2-ethoxy-6-fluorobenzyl)piperazin-1-yl) ethan-1-one], for which, in the assay on S-3769 strain, the “EC99, S-3769 strain, AMK” value is “A (12.5 μM<EC99≤25 μM)” and the “EC99, S-3769 strain, GM” value was “B (25 μM<EC99≤100 μM)”. For the same compound, in the assay with mexB (PA) strain, the “EC99, mexB (PA), AZT” value is recorded as “B (25 μM<EC99≤100 μM)”; the “EC99, mexB (PA), LVFX” value is reported as “B (25 μM<EC99≤100 μM)”; the “EC99, mexB (PA), TC” value is recorded as “A (12.5 μM<EC99≤25 μM)”.
For `N[C@@H](C(=O)N1CCN(Cc2c(F)cccc2N2CCCC2)CC1)C1CCN(CCc2cc(Cl)ccc2-c2ccccc2)CC1` [Example 517, Hydrobromide of (R)-2-amino-2-(1-(2-(4-chloro-[1,1-biphenyl]-2-yl)ethyl)piperidin-4-yl)-1-(4-(2-fluoro-6-(pyrrolidin-1-yl)benzyl)piperazin-1-yl)ethan-1-one], in the assay with S-3769 strain, the “EC99, combinational effect with AMK” value is recorded as “B (25 μM<EC99≤100 μM)” and the “EC99, combinational effect with GM” value was “B (25 μM<EC99≤100 μM)”. Moreover, in the assay on mexB (PA) strain, the “EC99 … with AZT, mexB (PA)” value is “B (25 μM<EC99≤100 μM)”; the “EC99 … with LVFX, mexB (PA)” value is reported as “C (100 μM<EC99)”; the “EC99 … with TC, mexB (PA)” value is “B (25 μM<EC99≤100 μM)”.
